Test results from US8481584B2, “1H-thieno[2,3-c]pyrazole derivatives useful as kinase inhibitors” (Nerviano Medical Sciences S.R.L., priority 2004, dated 2013).

target: T1, Aurora-2 (Homo sapiens, UniProt O14965); assay: Inhibition assay of Aurora-2 activity (SPA technology); assay type: biochemical; conditions: screened according to the methods of the pharmacology section; read-out: IC50 values for Aurora-2 inhibition
T1 sequence (O14965 1-403): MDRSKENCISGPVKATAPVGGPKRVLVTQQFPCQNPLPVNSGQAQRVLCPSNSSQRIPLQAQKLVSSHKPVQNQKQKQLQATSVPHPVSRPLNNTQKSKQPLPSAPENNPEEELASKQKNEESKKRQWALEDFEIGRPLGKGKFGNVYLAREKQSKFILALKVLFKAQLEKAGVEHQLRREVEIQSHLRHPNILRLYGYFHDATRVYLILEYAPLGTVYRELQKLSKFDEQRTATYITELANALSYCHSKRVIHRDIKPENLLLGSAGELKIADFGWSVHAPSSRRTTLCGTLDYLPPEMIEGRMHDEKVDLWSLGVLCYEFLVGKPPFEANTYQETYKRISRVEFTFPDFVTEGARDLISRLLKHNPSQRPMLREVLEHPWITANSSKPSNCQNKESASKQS
Experimental: The inhibiting activity and the potency of selected compounds is determined through a method of assay based on the use of the SPA technology (Amersham Pharmacia Biotech).
The assay consists of the transfer of radioactivity labelled phosphate moiety by the kinase to a biotinylated substrate. The resulting 33P-labelled biotinylated product is allowed to bind to streptavidin-coated SPA beads (biotin capacity 130 pmol/mg), and light emitted was measured in a scintillation counter.
Inhibition Assay of Aurora-2 Activity
After 60 minutes at room temperature incubation, reaction was stopped and biotinylated peptide captured by adding 100 μl of bead suspension.
Stratification: 100 μl of CsCl2 5 M were added to each well and let stand 4 hour before radioactivity was counted in the Top-Count instrument.
Experimental data were analyzed by the computer program GraphPad Prizm using the four parameter logistic equation: y=bottom+(top−bottom)/(1+10^((logIC50−x)*slope)) where x is the logarithm of the inhibitor concentration, y is the response; y starts at bottom and goes to top with a sigmoid shape.

IC50, < 20 nM:
CC(C)(NC(=O)c1cc2c(NC(=O)c3ccc(N4CCOCC4)cc3)n[nH]c2s1)c1cccc(S(C)(=O)=O)c1 [Compound 147, 3-(4-Morpholin-4-yl-benzoylamino)-1H-thieno[2,3-c]pyrazole-5-carboxylic acid [1-(3-methanesulfonyl-phenyl)-1-methyl-ethyl]amide]
O=C(Nc1n[nH]c2sc(C(=O)N[C@H](CN3CCOCC3)c3ccccc3)cc12)c1cccs1 [Compound 15, N-[(1S)-2-morpholin-4-yl-1-phenylethyl]-3-[(thien-2-ylcarbonyl)amino]-1H-thieno[2,3-c]pyrazole-5-carboxamide]
CC(C)(NC(=O)c1cc2c(NC(=O)c3ccc(CN4CCC4)cc3)n[nH]c2s1)c1ccccc1 [Compound 53, 3-(4-Azetidin-1-ylmethyl-benzoylamino)-1H-thieno[2,3-c]pyrazole-5-carboxylic acid (1-methyl-1-phenyl-ethyl)-amide]
CC(C)(NC(=O)c1cc2c(NC(=O)c3cccs3)n[nH]c2s1)c1cccc(F)c1 [Compound 124, 3-[(Thiophene-2-carbonyl)-amino]-1H-thieno[2,3-c]pyrazole-5-carboxylic acid [1-(3-fluoro-phenyl)-1-methyl-ethyl]-amide]
CC(C)(NC(=O)c1cc2c(NC(=O)c3ccc(CN4CCSC4)cc3)n[nH]c2s1)c1ccccc1 [Compound 49, 3-(4-Thiazolidin-3-ylmethyl-benzoylamino)-1H-thieno[2,3-c]pyrazole-5-carboxylic acid (1-methyl-1-phenyl-ethyl)-amide]
CCC(CC)(NC(=O)c1cc2c(NC(=O)c3ccc(N4CCN(C)CC4)cc3)n[nH]c2s1)c1ccccc1 [Compound 33, N-(1-ethyl-1-phenylpropyl)-3-{[4-(4-methylpiperazin-1-yl)benzoyl]amino}-1H-thieno[2,3-c]pyrazole-5-carboxamide]
CC(C)(NC(=O)c1cc2c(NC(=O)c3ccc(CN4CCC(F)CC4)cc3)n[nH]c2s1)c1ccccc1 [Compound 46]
CC[C@@H](NC(=O)c1cc2c(NC(=O)c3ccc(F)cc3)n[nH]c2s1)c1ccccc1 [Compound 9, 3-[(4-fluorobenzoyl)amino]-N-[(1R)-1-phenylpropyl]-1H-thieno[2,3-c]pyrazole-5-carboxamide]
CC(C)(NC(=O)c1cc2c(NC(=O)c3ccc(F)cc3)n[nH]c2s1)c1ccccc1 [Compound 8, 3-[(4-fluorobenzoyl)amino]-N-(1-methyl-1-phenylethyl)-1H-thieno[2,3-c]pyrazole-5-carboxamide]
CC(C)(NC(=O)c1cc2c(NC(=O)c3ccc(CN4CCCCC4)cc3)n[nH]c2s1)c1cccc(F)c1 [Compound 51, 3-(4-Piperidin-1-ylmethyl-benzoylamino)-1H-thieno[2,3-c]pyrazole-5-carboxylic acid [1-(3-fluoro-phenyl)-1-methyl-ethyl]-amide]
CN1CCN(c2ccc(C(=O)Nc3n[nH]c4sc(C(=O)NC5(c6ccccc6)CCCC5)cc34)cc2)CC1 [Compound 34, 3-{[4-(4-methylpiperazin-1-yl)benzoyl]amino}-N-(1-phenylcyclopentyl)-1H-thieno[2,3-c]pyrazole-5-carboxamide]
O=C(Nc1n[nH]c2sc(C(=O)NC3(c4ccccc4)CCCC3)cc12)c1ccc(N2CCOCC2)cc1 [Compound 131, 3-(4-Morpholin-4-yl-benzoylamino)-1H-thieno[2,3-c]pyrazole-5-carboxylic acid (1-phenyl-cyclopentyl)-amide]
CN1CCN(c2ccc(C(=O)Nc3n[nH]c4sc(C(=O)N[C@H](CN5CCOCC5)c5ccccc5)cc34)cc2)CC1 [Compound 31, 3-{[4-(4-methylpiperazin-1-yl)benzoyl]amino}-N-[(1S)-2-morpholin-4-yl-1-phenylethyl]-1H-thieno[2,3-c]pyrazole-5-carboxamide]
CN1CCC(Oc2ccc(C(=O)Nc3n[nH]c4sc(C(=O)NC(C)(C)c5ccccc5)cc34)cc2)CC1 [Compound 25, N-(1-methyl-1-phenylethyl)-3-({4-[(1-methylpiperidin-4-yl)oxy]benzoyl}amino)-1H-thieno[2,3-c]pyrazole-5-carboxamide]
COc1ccc(C(=O)Nc2n[nH]c3sc(C(=O)NC4(c5ccccc5)CC4)cc23)cc1 [Compound 134, 3-(4-Methoxy-benzoylamino)-1H-thieno[2,3-c]pyrazole-5-carboxylic acid (1-phenyl-cyclopropyl)-amide]
CC(C)(NC(=O)c1cc2c(NC(=O)c3ccc(CN4CCCCC4)cc3)n[nH]c2s1)c1ccccc1 [Compound 39, 3-(4-Piperidin-1-ylmethyl-benzoylamino)-1H-thieno[2,3-c]pyrazole-5-carboxylic acid(1-methyl-1-phenyl-ethyl)-amide]
Cn1cccc1C(=O)Nc1n[nH]c2sc(C(=O)NC3(c4ccccc4)CC3)cc12 [Compound 22, 3-{[(1-methyl-1H-pyrrol-2-yl)carbonyl]amino}-N-(1-phenylcyclopropyl)-1H-thieno[2,3-c]pyrazole-5-carboxamide]
CC[C@@H](NC(=O)c1cc2c(NC(=O)c3ccc(N4CCOCC4)cc3)n[nH]c2s1)c1ccccc1 [Compound 4, 3-[(4-morpholin-4-ylbenzoyl)amino]-N-[(1R)-1-phenylpropyl]-1H-thieno[2,3-c]pyrazole-5-carboxamide]
CC(C)(NC(=O)c1cc2c(NC(=O)c3cccs3)n[nH]c2s1)c1ccccc1F [Compound 123, 3-[(Thiophene-2-carbonyl)-amino]-1H-thieno[2,3-c]pyrazole-5-carboxylic acid [1-(2-fluoro-phenyl)-1-methyl-ethyl]-amide]
CN1CCN(c2ccc(C(=O)Nc3n[nH]c4sc(C(=O)NC(C)(C)c5ccc(F)cc5)cc34)cc2)CC1 [Compound 139, 3-[4-(4-Methyl-piperazin-1-yl)-benzoylamino]-1H-thieno[2,3-c]pyrazole-5-carboxylic acid [1-(4-fluoro-phenyl)-1-methyl-ethyl]amide]
O=C(Nc1n[nH]c2sc(C(=O)NC3(c4ccccc4)CC3)cc12)c1ccc(F)cc1 [Compound 7, 3-[(4-fluorobenzoyl)amino]-N-(1-phenylcyclopropyl)-1H-thieno[2,3-c]pyrazole-5-carboxamide]
C[C@@H](NC(=O)c1cc2c(NC(=O)c3cccs3)n[nH]c2s1)c1ccc(F)cc1 [Compound 17, N-[(1R)-1-(4-fluorophenyl)ethyl]-3-[(thien-2-ylcarbonyl)amino]-1H-thieno[2,3-c]pyrazole-5-carboxamide]
CC(C)(NC(=O)c1cc2c(NC(=O)c3ccc(CN4CCCC4)cc3)n[nH]c2s1)c1cccc(F)c1 [Compound 50, 3-(4-Pyrrolidin-1-ylmethyl-benzoylamino)-1H-thieno[2,3-c]pyrazole-5-carboxylic acid [1-(3-fluoro-phenyl)-1-methyl-ethyl]-amide]
CC(C)(NC(=O)c1cc2c(NC(=O)c3ccc(N4CCOCC4)cc3)n[nH]c2s1)c1ccncc1 [Compound 138, 3-(4-Morpholin-4-yl-benzoylamino)-1H-thieno[2,3-c]pyrazole-5-carboxylic acid (1-methyl-1-pyridin-4-yl-ethyl)-amide]
CN1CCN(Cc2ccc(C(=O)Nc3n[nH]c4sc(C(=O)NC(C)(C)c5ccccc5)cc34)cc2)CC1 [Compound 27, N-(1-methyl-1-phenylethyl)-3-({4-[(4-methylpiperazin-1-yl)methyl]benzoyl}amino)-1H-thieno[2,3-c]pyrazole-5-carboxamide]
C[C@](CN1CCOCC1)(NC(=O)c1cc2c(NC(=O)c3ccc(N4CCOCC4)cc3)n[nH]c2s1)c1ccccc1 [Compound 137, 3-(4-Morpholin-4-yl-benzoylamino)-1H-thieno[2,3-c]pyrazole-5-carboxylic acid ((S)-1-methyl-2-morpholin-4-yl-1-phenyl-ethyl)-amide]
CC(C)(NC(=O)c1cc2c(NC(=O)c3ccc(CN4CCS(=O)(=O)CC4)cc3)n[nH]c2s1)c1ccccc1 [Compound 41, 3-[4-(1,1-Dioxo-1-thiomorpholin-4-ylmethyl)-benzoylamino]-1H-thieno[2,3-c]pyrazole-5-carboxylic acid(1-methyl-1-phenyl-ethyl)-amide]
CC(C)(NC(=O)c1cc2c(NC(=O)c3ccc(CN4CCOCC4)cc3)n[nH]c2s1)c1ccccc1 [Compound 38, 3-(4-Morpholin-4-ylmethyl-benzoylamino)-1H-thieno[2,3-c]pyrazole-5-carboxylic acid (1-methyl-1-phenyl-ethyl)-amide]
